Results published in patent US20250092418A1, “METHODS OF GENETICALLY ALTERING A PLANT NIN-GENE TO BE RESPONSIVE TO AUXIN” (NIAB, priority 2023, published 2025).

What was measured:
pDR5:NLS-eGFP = pDR5:NLS-eGFP expression in barley STARTS lines post auxin treatment; format: in vivo, Hordeum vulgare; conditions: 50 μM 2,4D
Protocol: Tissue culture STARTS plants were grown in rooting media for approximately 4 weeks after transfer, and barley seeds were grown on water-agar plates for seven days after germination, after which seedlings were transferred to 1% Hoagland's media plates. […] The root portion of the plates was covered with aluminum foil. The plants were maintained under a 16 h-day and 8 h-night cycle at 24-22° C. Tissue was harvested four weeks after treatment for phenotyping and RNA extraction.
Auxin treatment was reported to induce nodule like-structures (NLS) in rice (Hiltenbrand et al., 2016). Since it was established in the strawberry system that expressing pDR5:DryasNIN could form NLS with some proto-nodule identity under the influence of auxin, lines in barley (Hordeum vulgare var Golden promise) were raised with the same cassette. To establish the efficacy of the pDR5 promoter in barely system, some transgenics were also raised with pDR5:GUS and pDR5:NLS-eGFP (FIGS. 23A-23F, 24A-24J). In comparison to overexpressing pOsUbi:GUS, pDR5:GUS expression under control condition was very weak (FIGS. 23B-23C).

MtNIN = assay: Relative expression of MtNIN in M. truncatula roots after auxin analogue treatment; format: in vivo, Medicago truncatula; conditions: exogenous treatment 0.1, 1 or 10 μM for 16 hours and 2 days
Protocol: Germinated seedlings (approx. 4 days after germination) are moved to FPmod plates supplemented with 0.1 μM, 1 μM, or 10 μM NAA, 0.8% agarose (Sigma), and adjusted to pH 7. The seedlings were maintained for 16 hours and 2 days under 16 h-day and 8 h-night cycle at 24-22° C. before harvesting them for RNA extraction.
Total RNA was reverse-transcribed using SuperScript™ III Reverse Transcriptase (Life Technologies) and anchored dT17 primers as described in the manufacturer's protocol. About 1 μl of cDNA was used to set up real-time RT-qPCR in a […] reaction system with 2×SYBR™ Green PCR master mixes (PCR biosystems) using an ABI Proflex7 Real-Time PCR system. PCR program: 1 cycle at 50° C. for 2 min, 1 cycle at 95° C. for 5 min, and 40 cycles at 95° C. for 30 s and 60° C. for 30s. Expression data were obtained from 3 independent biological repetitions. Calculations were done using the cycle threshold method using MtEF1a, DgActin and FvHistoneH4 as the endogenous control.

pDgNIN:GUS = assay: GUS staining of pDgNIN:GUS hairy roots after treatment with LCO / chitin oligomer signaling molecules; format: in vivo, Datisca glomerata; conditions: 24 hours post treatment with 10^−7M
Protocol: (§1) For GUS staining the harvested roots were thoroughly cleaned in sterile water and scored under the stereo-fluorescent microscope so that only the transformed roots were harvested for the staining purpose. The roots were fixed in 90% acetone on ice for 1 hour. Subsequently, the acetone was replaced with 50 mM phosphate buffer pH7.2 (Sigma) and the roots were washed twice to remove any acetone. The roots were then moved to the staining solution containing 0.1M Phosphate buffer, 0.25 mM K3[Fe(CN)6](potassium ferricyanide), 0.25 mM K4[Fe(CN)6](potassium ferrocyanide), 0.25% (v/v) Triton X-100 and 1 mM 5-bromo-4-chloro-3-indolyl beta-D-glucuronide (X-Gluc, Thermo). The samples were vacuum infiltrated for 30 minutes and incubated at 37° C. overnight. After staining the tissues were cleared of all the staining solution and stored in 50% ethanol for imaging under the stereomicroscope DX105 F (Leica). For ruthenium red staining the staining solution was prepared (0.1% ruthenium red in sterile water) and a few microliters are added over each section and subsequently washed using sterile deionized water. For toluidine blue staining, 0.1% toluidine blue staining solution was prepared in deionized water and a few microliters are added over each section and subsequently washed using sterile deionized water. […]

pDgNIN2:GUS = assay: GUS staining of pDgNIN2:GUS hairy roots after treatment with LCO / chitin oligomer signaling molecules; format: in vivo, Datisca glomerata; conditions: 24 hours post treatment with 10^−7M
Protocol: as §1

pDR5:GUS [1] = assay: pDR5:GUS auxin signaling readout in stable F. vesca lines; format: in vivo, Fragaria vesca; design: dose or concentration left out as unconfirmed
Protocol: Tissue culture plants growing in SMR (approximately 4 weeks after transfer) were moved to ½ Hoagland's media plates supplemented with 100^−6M NAA, 0.8% agarose (Sigma). The plants were maintained for 4 weeks under a 16 h-day and 8 h-night cycle at 22-24° C. before harvesting for phenotyping and RNA extraction.
as §1, with “(Leica).” for “(Leica). For ruthenium red staining the staining solution was prepared (0.1% ruthenium red in sterile water) and a few microliters are added over each section and subsequently washed using sterile deionized water. For toluidine blue staining, 0.1% toluidine blue staining solution was prepared in deionized water and a few microliters are added over each section and subsequently washed using sterile deionized water.”

pDR5:GUS [2] = assay: pDR5:GUS expression in barley STARTS lines post auxin treatment; format: in vivo, Hordeum vulgare; conditions: 100 μM NAA, 3 weeks post treatment
Protocol: as §1

DgNIN = assay: Relative expression of DgNIN in D. glomerata roots (real-time PCR, normalized to DgActin); format: in vivo, Datisca glomerata; conditions: 10 days post treatment with 100^−6M NAA
Protocol: (§2) Germinated seedlings (approx. 4 weeks after germination) are moved to ½MS plates supplemented with 0.5 g/L MES (Merck), 100^−6M NAA, 0.8% agarose (Sigma) and adjusted to pH 5.8. The seedlings were maintained for 10 days under a 16 h-day and 8 h-night cycle at 22-24° C. before harvesting for RNA extraction.
(§3) Each plant root system consisting of transformed root or nodules was harvested and each individual root system formed a biological replicate; 3 or more technical replicates were prepared from each root system having a 100-150 mg sample. RNA was extracted using a modified extraction buffer containing 2% SDS (v/v), 100 mM Tris-HCl pH 8.0, 1.4M NaCl, and 20 mM EDTA. The samples were crushed with tungsten-carbide beads (Qiagen) in a mechanical pulverize (Spex Geno/Grinder®) in the presence of 12 μl/ml β-mercaptoethanol (Sigma) and 50 mg PVPP (Sigma). The powder was resuspended with the extraction buffer followed by treatment with chloroform:iso-amyl alcohol (24:1)(Melford) and chloroform (Sigma). […] The extracted RNA was quantified using a NanoDrop® (Thermo) and then treated for DNase digestion using TURBO DNA-free™ kit (Thermo) using the manufacturer protocol. […] Quantitative real-time polymerase chain reaction (qRT-PCR) was performed in technical replicates using SyGreen mix Lo-ROX (PCR Biosystems) using QuantStudio™ 7 Flex system (ABI) in a total volume of 10 μl. […]

DgNIN2 = assay: Relative expression of DgNIN2 in D. glomerata roots (real-time PCR, normalized to DgActin); format: in vivo, Datisca glomerata; conditions: 10 days post treatment with 100^−6M NAA
Protocol: as §2, §3

| Compound | activation of MtNIN expression (MtNIN) | GUS staining of pDgNIN:GUS roots (pDgNIN:GUS) | GUS staining of pDgNIN2:GUS roots (pDgNIN2:GUS) | also measured |
| --- | --- | --- | --- | --- |
| O=C(O)COc1ccc(Cl)cc1Cl [2,4D, 2,4-Dichlorophenoxyacetic acid] | differential activation of MtNIN expression |  |  | pDR5:NLS-eGFP signal (pDR5:NLS-eGFP): eGFP localization could be seen in the nucleus |
| CC(=O)N[C@H]1[C@H](O[C@H]2[C@H](O)[C@@H](NC(C)=O)[C@H](O[C@H]3[C@H](O)[C@@H](NC(C)=O)[C@H](O[C@H]4[C@H](O)[C@@H](NC(C)=O)C(O)O[C@@H]4CO)O[C@@H]3CO)O[C@@H]2CO)O[C@H](CO)[C@@H](O[C@@H]2O[C@H](CO)[C@@H](O[C@@H]3O[C@H](CO)[C@@H](O[C@@H]4O[C@H](CO)[C@@H](O[C@@H]5O[C@H](CO)[C@@H](O)[C@H](O)[C@H]5NC(C)=O)[C@H](O)[C@H]4NC(C)=O)[C@H](O)[C@H]3NC(C)=O)[C@H](O)[C@H]2NC(C)=O)[C@@H]1O (stereo partly shown) [C08] |  | no staining | failed to induce any NIN expression |  |
| O=C(O)Cc1cccc2ccccc12 [NAA, 1-naphthalene acetic acid] | differential activation of MtNIN expression |  |  | pDR5:GUS staining pattern (pDR5:GUS [1]; +N+P+NAA): non-specific expression throughout the root system; pDR5:GUS staining pattern (pDR5:GUS [1]; −N+P+NAA (N limiting condition)): localized GUS staining in the bump like structures; pDR5:GUS staining (pDR5:GUS [2]): GUS staining was visible in the bump-like structures; increase in the expression of DgNIN as compared to the control treated root samples (DgNIN): ~4 fold; increase in the expression of DgNIN2 as compared to the control treated root samples (DgNIN2): ~12 fold |
| O=C(O)CCCc1c[nH]c2ccccc12 [IBA, Indole-3-butyric acid] | differential activation of MtNIN expression |  |  |  |
| CC(=O)N[C@H]1[C@H](O[C@H]2[C@H](O)[C@@H](NC(C)=O)C(O)O[C@@H]2CO)O[C@H](CO)[C@@H](O[C@@H]2O[C@H](CO)[C@@H](O[C@@H]3O[C@H](CO)[C@@H](O)[C@H](O)[C@H]3NC(C)=O)[C@H](O)[C@H]2NC(C)=O)[C@@H]1O (stereo partly shown) [C04] |  | intense staining in the root vasculature and near the root tip | did not show staining |  |
